Reference: the supplement of paper PMC10011410
± gives the standard deviation of the averaged measurements.

system: U-2 OS; experiment: intracellular GSH:GSSG ratio (calculated); higher = more reduced glutathione pool; settings: 40 µM; 24 h
Outline: (§1)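 In white low-volume 384-well plates, 750 U-2 OS cells per well were treated by pin tool after 24 h, most compounds at 20, 10 and 5 μM with 0.4% DMSO, and incubated for 24 h at 37 °C. Total glutathione and GSSG, or viability, were then read by luminescence using GSH/GSSG-Glo or CellTiter-Glo on separate plates. Values, corrected for background and row/column position, are given relative to vehicle or as a GSH:GSSG ratio.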

Compound | intracellular GSH:GSSG ratio
Oc1cccc(O)c1O | 1.66
Cc1cc2c(C(C)C)c(O)c(O)c(C=O)c2c(O)c1-c1c(C)cc2c(C(C)C)c(O)c(O)c(C=O)c2c1O | 3.8

same assay, conditions: 80 µM; 24 h

Compound | intracellular GSH:GSSG ratio
Cl.Cl.O=C(O)Cn1nnc(-c2ccc(CN(CCCCOc3ccc(CN4CCCC4)cc3)CCc3ccccc3)cc2)n1 | 14
Cc1cc2c(C(C)C)c(O)c(O)c(C=O)c2c(O)c1-c1c(C)cc2c(C(C)C)c(O)c(O)c(C=O)c2c1O | 1.25

system: U-2 OS; experiment: total intracellular glutathione (GSH + GSSG) relative to DMSO (% of control); higher = more glutathione; settings: 5 µM; 24 h
Outline: as §1

Compound | total intracellular glutathione
Cl.Cl.O=C(O)Cn1nnc(-c2ccc(CN(CCCCOc3ccc(CN4CCCC4)cc3)CCc3ccccc3)cc2)n1 | 99.4 ± 2.1
Cn1c(=O)n(-c2ccc(C(C)(C)C#N)cc2)c2c3cc(-c4cnc5ccccc5c4)ccc3ncc21 | 71.3 ± 4.7
COC[C@H]1OC(=O)c2coc3c2[C@@]1(C)C1=C(C3=O)[C@@H]2CCC(=O)[C@@]2(C)C[C@H]1OC(C)=O | 85.3 ± 3.2
Oc1cccc(O)c1O | 82.6 ± 6.4
O=S1(=O)CCc2ccccc21 | 104 ± 1.9
c1ccc(-c2noc(NC3CCCC3)n2)cc1 | 103 ± 5.1
CCOc1cc2ncc(C#N)c(Nc3ccc(OCc4ccccn4)c(Cl)c3)c2cc1NC(=O)/C=C/CN(C)C | 58.3 ± 2.8
Cc1cc2c(C(C)C)c(O)c(O)c(C=O)c2c(O)c1-c1c(C)cc2c(C(C)C)c(O)c(O)c(C=O)c2c1O | 92.2 ± 3.2
Cc1cc(-c2ccccc2)cc(C(=O)NNS(=O)(=O)c2ccccc2)c1F | 124 ± 13
O=C(NNS(=O)(=O)c1ccccc1F)c1cc(F)cc(-c2ccccn2)c1 | 101 ± 5.7

same assay, conditions: 10 µM; 24 h

Compound | total intracellular glutathione
Cl.Cl.O=C(O)Cn1nnc(-c2ccc(CN(CCCCOc3ccc(CN4CCCC4)cc3)CCc3ccccc3)cc2)n1 | 97 ± 3.3
Cn1c(=O)n(-c2ccc(C(C)(C)C#N)cc2)c2c3cc(-c4cnc5ccccc5c4)ccc3ncc21 | 70.8 ± 2.6
COC[C@H]1OC(=O)c2coc3c2[C@@]1(C)C1=C(C3=O)[C@@H]2CCC(=O)[C@@]2(C)C[C@H]1OC(C)=O | 82.6 ± 4
Oc1cccc(O)c1O | 48.8 ± 13
O=S1(=O)CCc2ccccc21 | 109 ± 7.8
c1ccc(-c2noc(NC3CCCC3)n2)cc1 | 103 ± 10
CCOc1cc2ncc(C#N)c(Nc3ccc(OCc4ccccn4)c(Cl)c3)c2cc1NC(=O)/C=C/CN(C)C | 61.3 ± 2.5
Cc1cc2c(C(C)C)c(O)c(O)c(C=O)c2c(O)c1-c1c(C)cc2c(C(C)C)c(O)c(O)c(C=O)c2c1O | 70 ± 4.9
Cc1cc(-c2ccccc2)cc(C(=O)NNS(=O)(=O)c2ccccc2)c1F | 109 ± 5.4
O=C(NNS(=O)(=O)c1ccccc1F)c1cc(F)cc(-c2ccccn2)c1 | 103 ± 5.3

same assay, conditions: 20 µM; 24 h

Compound | total intracellular glutathione
Cl.Cl.O=C(O)Cn1nnc(-c2ccc(CN(CCCCOc3ccc(CN4CCCC4)cc3)CCc3ccccc3)cc2)n1 | 95.5 ± 4.5
Cn1c(=O)n(-c2ccc(C(C)(C)C#N)cc2)c2c3cc(-c4cnc5ccccc5c4)ccc3ncc21 | 68.2 ± 2.1
COC[C@H]1OC(=O)c2coc3c2[C@@]1(C)C1=C(C3=O)[C@@H]2CCC(=O)[C@@]2(C)C[C@H]1OC(C)=O | 76.8 ± 3.8
Oc1cccc(O)c1O | 3.4 ± 0.69
O=S1(=O)CCc2ccccc21 | 106 ± 7.5
c1ccc(-c2noc(NC3CCCC3)n2)cc1 | 107 ± 7.1
CCOc1cc2ncc(C#N)c(Nc3ccc(OCc4ccccn4)c(Cl)c3)c2cc1NC(=O)/C=C/CN(C)C | 59.5 ± 3.7
Cc1cc2c(C(C)C)c(O)c(O)c(C=O)c2c(O)c1-c1c(C)cc2c(C(C)C)c(O)c(O)c(C=O)c2c1O | 63.3 ± 3.2
Cc1cc(-c2ccccc2)cc(C(=O)NNS(=O)(=O)c2ccccc2)c1F | 110 ± 4.2
O=C(NNS(=O)(=O)c1ccccc1F)c1cc(F)cc(-c2ccccn2)c1 | 104 ± 5.1

same assay, conditions: 40 µM; 24 h

Compound | total intracellular glutathione
Cl.Cl.O=C(O)Cn1nnc(-c2ccc(CN(CCCCOc3ccc(CN4CCCC4)cc3)CCc3ccccc3)cc2)n1 | 96.7 ± 2.5
Oc1cccc(O)c1O | 2.67 ± 0.16
Cc1cc2c(C(C)C)c(O)c(O)c(C=O)c2c(O)c1-c1c(C)cc2c(C(C)C)c(O)c(O)c(C=O)c2c1O | 62.8 ± 3.7

same assay, conditions: 80 µM; 24 h

Compound | total intracellular glutathione
Cl.Cl.O=C(O)Cn1nnc(-c2ccc(CN(CCCCOc3ccc(CN4CCCC4)cc3)CCc3ccccc3)cc2)n1 | 72.7 ± 5.7
Oc1cccc(O)c1O | 2.53 ± 0.23
Cc1cc2c(C(C)C)c(O)c(O)c(C=O)c2c(O)c1-c1c(C)cc2c(C(C)C)c(O)c(O)c(C=O)c2c1O | 18.2 ± 4.2

system: U-2 OS; experiment: cell viability (CellTiter-Glo) relative to DMSO (% of control); higher = more viable; settings: 5 µM; 24 h
Outline: as §1

Compound | cell viability
Cl.Cl.O=C(O)Cn1nnc(-c2ccc(CN(CCCCOc3ccc(CN4CCCC4)cc3)CCc3ccccc3)cc2)n1 | 96.5 ± 5.3
Cn1c(=O)n(-c2ccc(C(C)(C)C#N)cc2)c2c3cc(-c4cnc5ccccc5c4)ccc3ncc21 | 68.1 ± 3.9
COC[C@H]1OC(=O)c2coc3c2[C@@]1(C)C1=C(C3=O)[C@@H]2CCC(=O)[C@@]2(C)C[C@H]1OC(C)=O | 83.6 ± 1.5
Oc1cccc(O)c1O | 82.2 ± 6.1
O=S1(=O)CCc2ccccc21 | 101 ± 3.4
c1ccc(-c2noc(NC3CCCC3)n2)cc1 | 95.5 ± 6.9
CCOc1cc2ncc(C#N)c(Nc3ccc(OCc4ccccn4)c(Cl)c3)c2cc1NC(=O)/C=C/CN(C)C | 71.7 ± 4.9
Cc1cc2c(C(C)C)c(O)c(O)c(C=O)c2c(O)c1-c1c(C)cc2c(C(C)C)c(O)c(O)c(C=O)c2c1O | 96.4 ± 1.8
Cc1cc(-c2ccccc2)cc(C(=O)NNS(=O)(=O)c2ccccc2)c1F | 109 ± 6
O=C(NNS(=O)(=O)c1ccccc1F)c1cc(F)cc(-c2ccccn2)c1 | 97.4 ± 5.8

same assay, conditions: 10 µM; 24 h

Compound | cell viability
Cl.Cl.O=C(O)Cn1nnc(-c2ccc(CN(CCCCOc3ccc(CN4CCCC4)cc3)CCc3ccccc3)cc2)n1 | 100 ± 3.5
Cn1c(=O)n(-c2ccc(C(C)(C)C#N)cc2)c2c3cc(-c4cnc5ccccc5c4)ccc3ncc21 | 62.4 ± 1.9
COC[C@H]1OC(=O)c2coc3c2[C@@]1(C)C1=C(C3=O)[C@@H]2CCC(=O)[C@@]2(C)C[C@H]1OC(C)=O | 76 ± 2.8
Oc1cccc(O)c1O | 35.7 ± 10
O=S1(=O)CCc2ccccc21 | 101 ± 5.8
c1ccc(-c2noc(NC3CCCC3)n2)cc1 | 101 ± 8.9
CCOc1cc2ncc(C#N)c(Nc3ccc(OCc4ccccn4)c(Cl)c3)c2cc1NC(=O)/C=C/CN(C)C | 71 ± 3.7
Cc1cc2c(C(C)C)c(O)c(O)c(C=O)c2c(O)c1-c1c(C)cc2c(C(C)C)c(O)c(O)c(C=O)c2c1O | 88.1 ± 5.2
Cc1cc(-c2ccccc2)cc(C(=O)NNS(=O)(=O)c2ccccc2)c1F | 101 ± 7.7
O=C(NNS(=O)(=O)c1ccccc1F)c1cc(F)cc(-c2ccccn2)c1 | 97.1 ± 5.3

same assay, conditions: 20 µM; 24 h

Compound | cell viability
Cl.Cl.O=C(O)Cn1nnc(-c2ccc(CN(CCCCOc3ccc(CN4CCCC4)cc3)CCc3ccccc3)cc2)n1 | 98.8 ± 6.4
Cn1c(=O)n(-c2ccc(C(C)(C)C#N)cc2)c2c3cc(-c4cnc5ccccc5c4)ccc3ncc21 | 63.2 ± 3.4
COC[C@H]1OC(=O)c2coc3c2[C@@]1(C)C1=C(C3=O)[C@@H]2CCC(=O)[C@@]2(C)C[C@H]1OC(C)=O | 69.3 ± 1.1
Oc1cccc(O)c1O | 0.451 ± 0.23
O=S1(=O)CCc2ccccc21 | 102 ± 2.9
c1ccc(-c2noc(NC3CCCC3)n2)cc1 | 97 ± 6.5
CCOc1cc2ncc(C#N)c(Nc3ccc(OCc4ccccn4)c(Cl)c3)c2cc1NC(=O)/C=C/CN(C)C | 73.1 ± 7.3
Cc1cc2c(C(C)C)c(O)c(O)c(C=O)c2c(O)c1-c1c(C)cc2c(C(C)C)c(O)c(O)c(C=O)c2c1O | 68.2 ± 2.1
